Source: ChEMBL document CHEMBL1129840, “The synthesis and SAR of new 4-(N-alkyl-N-phenyl)amino-6,7-dimethoxyquinazolines and 4-(N-alkyl-N-phenyl)aminopyrazolo[3,4-d]pyrimidines, inhibitors of CSF-1R tyrosine kinase activity” (Bioorg Med Chem Lett, 1997)

Key:
[1] = target: Macrophage colony-stimulating factor 1 receptor (Homo sapiens, UniProt P07333); experiment: Antagonism towards Colony stimulating factor 1 receptor (CSF-1R); assay type: functional
[2] = target: Epidermal growth factor receptor (Homo sapiens, UniProt P00533); experiment: Antagonism towards Epidermal growth factor receptor
Epidermal growth factor receptor, sequence (P00533 whole entry): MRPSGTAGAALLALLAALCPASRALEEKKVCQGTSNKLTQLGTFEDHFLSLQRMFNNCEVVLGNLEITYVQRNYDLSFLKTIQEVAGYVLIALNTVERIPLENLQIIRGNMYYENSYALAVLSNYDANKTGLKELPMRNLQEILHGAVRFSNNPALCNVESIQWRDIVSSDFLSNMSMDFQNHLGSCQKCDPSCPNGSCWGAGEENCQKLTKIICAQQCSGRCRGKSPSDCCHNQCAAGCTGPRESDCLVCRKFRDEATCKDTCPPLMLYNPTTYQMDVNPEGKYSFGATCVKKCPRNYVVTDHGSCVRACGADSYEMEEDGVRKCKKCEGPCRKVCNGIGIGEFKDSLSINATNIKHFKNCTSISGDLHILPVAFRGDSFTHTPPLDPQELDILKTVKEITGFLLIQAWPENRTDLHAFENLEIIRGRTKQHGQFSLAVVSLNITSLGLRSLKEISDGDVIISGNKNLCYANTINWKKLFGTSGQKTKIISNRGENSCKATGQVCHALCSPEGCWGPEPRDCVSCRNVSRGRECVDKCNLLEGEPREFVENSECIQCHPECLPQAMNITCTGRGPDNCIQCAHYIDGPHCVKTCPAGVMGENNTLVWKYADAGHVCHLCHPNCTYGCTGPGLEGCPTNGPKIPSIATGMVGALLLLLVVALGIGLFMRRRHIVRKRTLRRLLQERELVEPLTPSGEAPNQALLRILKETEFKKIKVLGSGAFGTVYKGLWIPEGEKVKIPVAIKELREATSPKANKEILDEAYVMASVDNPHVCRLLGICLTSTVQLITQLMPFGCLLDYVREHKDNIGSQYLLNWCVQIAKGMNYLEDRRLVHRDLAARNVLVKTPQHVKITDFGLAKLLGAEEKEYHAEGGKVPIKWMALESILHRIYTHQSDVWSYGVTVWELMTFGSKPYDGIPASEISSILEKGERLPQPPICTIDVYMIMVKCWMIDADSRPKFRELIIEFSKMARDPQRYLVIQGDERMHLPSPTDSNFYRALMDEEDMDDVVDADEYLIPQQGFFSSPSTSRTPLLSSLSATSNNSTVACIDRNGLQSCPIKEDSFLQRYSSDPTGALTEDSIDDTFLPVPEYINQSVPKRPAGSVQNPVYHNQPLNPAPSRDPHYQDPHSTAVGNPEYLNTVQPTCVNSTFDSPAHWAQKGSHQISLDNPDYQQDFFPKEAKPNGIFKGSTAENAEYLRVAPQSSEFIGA

[3] = target: Tyrosine-protein kinase Lck (Homo sapiens, UniProt P06239); experiment: Inhibition of p56 lck tyrosine kinase (inactive)
Tyrosine-protein kinase Lck, sequence (P06239 whole entry): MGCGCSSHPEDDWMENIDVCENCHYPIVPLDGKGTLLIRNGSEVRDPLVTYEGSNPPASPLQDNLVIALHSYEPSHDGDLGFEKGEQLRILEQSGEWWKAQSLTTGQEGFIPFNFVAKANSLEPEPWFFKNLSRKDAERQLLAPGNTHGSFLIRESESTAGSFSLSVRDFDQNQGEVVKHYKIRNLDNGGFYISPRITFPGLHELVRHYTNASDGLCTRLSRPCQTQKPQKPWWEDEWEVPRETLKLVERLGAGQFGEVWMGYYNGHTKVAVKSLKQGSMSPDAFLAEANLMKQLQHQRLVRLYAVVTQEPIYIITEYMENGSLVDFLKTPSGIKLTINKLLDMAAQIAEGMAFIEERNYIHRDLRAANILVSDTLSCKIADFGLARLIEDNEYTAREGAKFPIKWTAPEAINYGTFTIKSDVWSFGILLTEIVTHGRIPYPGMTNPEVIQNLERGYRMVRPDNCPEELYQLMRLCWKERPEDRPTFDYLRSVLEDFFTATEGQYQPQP

[4] = target: Platelet-derived growth factor receptor (Homo sapiens, UniProt P09619+P16234); experiment: Inhibition of platelet-derived growth factor receptor (PDGF-R)

Macrophage colony-stimulating factor 1 receptor, sequence (P07333 whole entry): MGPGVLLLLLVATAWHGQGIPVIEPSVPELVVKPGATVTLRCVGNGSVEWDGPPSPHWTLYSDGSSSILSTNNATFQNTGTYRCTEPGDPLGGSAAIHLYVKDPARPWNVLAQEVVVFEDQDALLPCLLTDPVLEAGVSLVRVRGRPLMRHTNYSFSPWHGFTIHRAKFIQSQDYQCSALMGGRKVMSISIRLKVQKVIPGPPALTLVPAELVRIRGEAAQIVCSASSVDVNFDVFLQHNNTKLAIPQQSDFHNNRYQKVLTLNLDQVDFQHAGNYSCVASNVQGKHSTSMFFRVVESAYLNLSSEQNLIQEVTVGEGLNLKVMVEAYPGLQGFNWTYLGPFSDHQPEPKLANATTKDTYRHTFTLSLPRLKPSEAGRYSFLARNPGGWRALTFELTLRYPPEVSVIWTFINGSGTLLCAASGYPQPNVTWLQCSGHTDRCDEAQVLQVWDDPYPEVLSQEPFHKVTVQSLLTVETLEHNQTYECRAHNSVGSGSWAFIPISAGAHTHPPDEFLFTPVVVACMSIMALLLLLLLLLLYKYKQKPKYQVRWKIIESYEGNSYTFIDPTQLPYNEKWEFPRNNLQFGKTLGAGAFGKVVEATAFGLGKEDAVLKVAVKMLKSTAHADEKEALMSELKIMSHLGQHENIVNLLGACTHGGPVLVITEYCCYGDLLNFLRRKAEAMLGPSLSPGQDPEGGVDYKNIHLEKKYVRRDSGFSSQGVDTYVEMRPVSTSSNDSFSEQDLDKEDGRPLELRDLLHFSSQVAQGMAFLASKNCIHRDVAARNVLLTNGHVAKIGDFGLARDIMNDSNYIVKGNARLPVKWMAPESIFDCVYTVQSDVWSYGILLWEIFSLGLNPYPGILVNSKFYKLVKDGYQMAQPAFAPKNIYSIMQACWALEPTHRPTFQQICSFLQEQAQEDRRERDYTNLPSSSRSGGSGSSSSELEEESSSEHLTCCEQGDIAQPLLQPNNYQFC

Row | SMILES | IC50 [1] | IC50 [2] | IC50 [3] | IC50 [4]
1 | COc1cc2ncnc(N(C)c3ccc(C)cc3)c2cc1OC | 2 µM | 4 µM | – | –
2 | Cc1cccc(N(C)c2ncnc3cc(C)c(C)cc23)c1 | 1.6 µM | 6.5 µM | – | –
3 | COc1cc2ncnc(N(C)c3cccc(C)c3)c2cc1OC | 0.18 µM | 12 µM | – | –
4 | CN(c1ccccc1)c1ncnc2[nH]cnc12 | 4 µM | 2 µM | – | –
5 | COc1cc2ncnc(N(C)c3cccc(C(F)(F)F)c3)c2cc1OC | 0.5 µM | 30 µM | – | –
6 | COc1cc2ncnc(Nc3ccccc3)c2cc1OC | > 50 µM | 0.05 µM | – | –
7 | COc1cc2ncnc(N(C)c3ccccc3)c2cc1OC | – | 4 µM | > 100 µM | 15 µM
8 | COc1cc2ncnc(Nc3cc(OC)c(OC)c(OC)c3)c2cc1OC | > 100 µM | – | – | 20 µM
9 | COc1ccc2ncnc(N(C)c3ccccc3)c2c1 | 20 µM | > 20 µM | – | –
10 | CN(c1ccccc1)c1ncnc2ccccc12 | > 20 µM | > 50 µM | – | –
11 | COc1cc2ncnc(N(C)c3ccc(Cl)cc3)c2cc1OC | 2.1 µM | 3 µM | – | –
12 | COc1cc2c(N(C)c3ccccc3)ncnc2c(OC)c1OC | > 20 µM | > 20 µM | – | –
13 | Cc1cccc(N(C)c2ncnc3n[nH]cc23)c1 | 0.18 µM | > 50 µM | – | –
14 | COc1cc2nc(Cl)nc(N(C)c3ccccc3)c2cc1OC | > 50 µM | > 50 µM | – | –

Other lines, results leading:

Row | IC50 [1] | IC50 [2] | IC50 [3] | IC50 [4] | SMILES
15 | 5 µM | 3 µM | – | – | COc1cc2ncnc(N3CCc4ccccc43)c2cc1OC
16 | > 50 µM | > 50 µM | – | – | COc1nc(N(C)c2ccccc2)c2cc(OC)c(OC)cc2n1
17 | 5 µM | > 20 µM | – | – | CN(c1ccccc1)c1ncnc2ccc(Cl)cc12
18 | 0.6 µM | > 50 µM | – | – | CN(c1ccccc1)c1[nH]cnc2nncc1-2
19 | 1.5 µM | 0.1 µM | – | – | COc1cc2ncnc(N(C)c3cccc(Cl)c3)c2cc1OC
20 | – | 5.5 µM | – | – | CCN(c1ccccc1)c1ncnc2cc(OC)c(OC)cc12
21 | > 20 µM | > 20 µM | – | – | Cc1cc(C)c2ncnc(N(C)c3ccccc3)c2c1
